{"source": "patent US4465631A", "about": "“5-Substituted-3-isoxazolecarboxylic acid derivatives” (Ajinomoto Company, Incorporated, priority 1982, dated 1984)", "test_in_all_cases": "Antibacterial activity (MIC)", "type_in_all_cases": "cell-based", "key": {"Pseudomonas maltophilia": {"test_system": "Pseudomonas maltophilia", "details": "Stenotrophomonas maltophilia", "excerpt": "(§1) Regarding the products produced in the above mentioned Examples antibacterial activities against some microorganisms were obtained."}, "Klebsiella pneumoniae": {"test_system": "Klebsiella pneumoniae", "excerpt": "as §1"}, "Proteus mirabilis": {"test_system": "Proteus mirabilis", "excerpt": "as §1"}, "Staphylococcus aureus": {"test_system": "Staphylococcus aureus", "excerpt": "as §1"}, "Bacteroides fragilis": {"test_system": "Bacteroides fragilis", "excerpt": "as §1"}, "Alcaligenes faecalis": {"test_system": "Alcaligenes faecalis", "excerpt": "as §1"}, "Pseudomonas aeruginosa": {"test_system": "Pseudomonas aeruginosa", "excerpt": "as §1"}, "Serratia marcescens": {"test_system": "Serratia marcescens", "excerpt": "as §1"}, "Escherichia coli": {"test_system": "Escherichia coli", "excerpt": "as §1"}, "Pseudomonas cepacia": {"test_system": "Pseudomonas cepacia", "details": "Burkholderia cepacia", "excerpt": "as §1"}, "[1]": {"test_system": "Achromobacter xylosoxidans", "excerpt": "as §1"}}, "note": "Where a name gives a salt, the structure may show the parent alone. Read-outs that look alike come from different tables or passages of the source.", "data": [{"smiles": "CC1(C)S[C@@H]2[C@H](NC(=O)C(C(=O)O)c3ccccc3)C(=O)N2[C@H]1C(=O)O", "note": "(some centres unmarked) [Carbenicillin, reference compound]", "values": [{"measurement": "MIC", "setting": "Pseudomonas maltophilia", "value": "> 100", "unit": "mg/L"}, {"measurement": "MIC", "setting": "Klebsiella pneumoniae", "value": "> 100", "unit": "mg/L"}, {"measurement": "MIC", "setting": "Proteus mirabilis", "value": 0.78, "unit": "mg/L"}, {"measurement": "MIC", "setting": "Staphylococcus aureus", "value": 0.78, "unit": "mg/L"}, {"measurement": "MIC", "setting": "Bacteroides fragilis", "value": "> 100", "unit": "mg/L"}, {"measurement": "MIC", "setting": "Alcaligenes faecalis", "value": "> 100", "unit": "mg/L"}, {"measurement": "MIC", "setting": "Pseudomonas aeruginosa", "value": 25, "unit": "mg/L"}, {"measurement": "MIC", "setting": "Serratia marcescens", "value": "> 100", "unit": "mg/L"}, {"measurement": "MIC", "setting": "Escherichia coli", "value": 12.5, "unit": "mg/L"}, {"measurement": "MIC", "setting": "Pseudomonas cepacia", "value": "> 100", "unit": "mg/L"}, {"measurement": "MIC", "setting": "[1]", "value": "> 100", "unit": "mg/L"}]}, {"smiles": "COc1cccc(-c2cc(C(=O)N[C@@H](C(=O)N[C@@H]3C(=O)N4[C@@H]3SC(C)(C)[C@@H]4C(=O)O)c3ccccc3)no2)c1", "note": "[Example 3, D-α-(5-m-anisylisoxazole-3-carboxamido)-benzylpenicillin sodium salt]", "values": [{"measurement": "MIC", "setting": "Pseudomonas maltophilia", "value": 12.5, "unit": "mg/L"}, {"measurement": "MIC", "setting": "Klebsiella pneumoniae", "value": 12.5, "unit": "mg/L"}, {"measurement": "MIC", "setting": "Proteus mirabilis", "value": 0.39, "unit": "mg/L"}, {"measurement": "MIC", "setting": "Staphylococcus aureus", "value": 0.2, "unit": "mg/L"}, {"measurement": "MIC", "setting": "Bacteroides fragilis", "value": 12.5, "unit": "mg/L"}, {"measurement": "MIC", "setting": "Alcaligenes faecalis", "value": 6.25, "unit": "mg/L"}, {"measurement": "MIC", "setting": "Pseudomonas aeruginosa", "value": 6.25, "unit": "mg/L"}, {"measurement": "MIC", "setting": "Serratia marcescens", "value": 12.5, "unit": "mg/L"}, {"measurement": "MIC", "setting": "Escherichia coli; read-out: MIC", "value": 12.5, "unit": "mg/L"}, {"measurement": "MIC", "setting": "Pseudomonas cepacia", "value": 3.13, "unit": "mg/L"}, {"measurement": "MIC", "setting": "[1]", "value": 3.13, "unit": "mg/L"}]}, {"smiles": "CC1(C)S[C@@H]2[C@H](NC(=O)[C@H](NC(=O)c3cc(-c4cccs4)on3)c3ccccc3)C(=O)N2[C@H]1C(=O)O", "note": "[Example 8, D-α-[5-(2-thienyl)-isoxazole-3-carboxamido]-benzyl-penicillin sodium salt]", "values": [{"measurement": "MIC", "setting": "Pseudomonas maltophilia", "value": 12.5, "unit": "mg/L"}, {"measurement": "MIC", "setting": "Klebsiella pneumoniae", "value": 12.5, "unit": "mg/L"}, {"measurement": "MIC", "setting": "Proteus mirabilis", "value": 0.78, "unit": "mg/L"}, {"measurement": "MIC", "setting": "Staphylococcus aureus", "value": "≤ 0.1", "unit": "mg/L"}, {"measurement": "MIC", "setting": "Bacteroides fragilis", "value": 12.5, "unit": "mg/L"}, {"measurement": "MIC", "setting": "Alcaligenes faecalis", "value": 12.5, "unit": "mg/L"}, {"measurement": "MIC", "setting": "Pseudomonas aeruginosa", "value": 6.25, "unit": "mg/L"}, {"measurement": "MIC", "setting": "Serratia marcescens", "value": 25, "unit": "mg/L"}, {"measurement": "MIC", "setting": "Escherichia coli; read-out: MIC", "value": 12.5, "unit": "mg/L"}, {"measurement": "MIC", "setting": "Pseudomonas cepacia", "value": 6.25, "unit": "mg/L"}, {"measurement": "MIC", "setting": "[1]", "value": 3.13, "unit": "mg/L"}]}, {"smiles": "Cc1ccc(-c2cc(C(=O)N[C@@H](C(=O)N[C@@H]3C(=O)N4[C@@H]3SC(C)(C)[C@@H]4C(=O)O)c3ccccc3)no2)cc1", "note": "[Example 1, α-[5-(4-methylphenyl)-3-isoxazolecarboxamido]-benzylpenicillin]", "values": [{"measurement": "MIC", "setting": "Pseudomonas maltophilia", "value": 6.25, "unit": "mg/L"}, {"measurement": "MIC", "setting": "Klebsiella pneumoniae", "value": 6.25, "unit": "mg/L"}, {"measurement": "MIC", "setting": "Proteus mirabilis", "value": 0.78, "unit": "mg/L"}, {"measurement": "MIC", "setting": "Staphylococcus aureus", "value": "≤ 0.1", "unit": "mg/L"}, {"measurement": "MIC", "setting": "Bacteroides fragilis", "value": 6.25, "unit": "mg/L"}, {"measurement": "MIC", "setting": "Alcaligenes faecalis", "value": 6.25, "unit": "mg/L"}, {"measurement": "MIC", "setting": "Pseudomonas aeruginosa", "value": 3.13, "unit": "mg/L"}, {"measurement": "MIC", "setting": "Serratia marcescens", "value": 12.5, "unit": "mg/L"}, {"measurement": "MIC", "setting": "Escherichia coli; read-out: MIC", "value": 12.5, "unit": "mg/L"}, {"measurement": "MIC", "setting": "Pseudomonas cepacia", "value": 3.13, "unit": "mg/L"}, {"measurement": "MIC", "setting": "[1]", "value": 1.56, "unit": "mg/L"}]}]}
